These results are taken from ChEMBL document CHEMBL4118068 (Eur J Med Chem, 2017).

The target of assay [1] is Muscarinic acetylcholine receptor M3 (Homo sapiens, UniProt P20309). The assay can be described thus: Displacement of [3H]NMS from recombinant human muscarinic M3 receptor expressed in CHOK1 cell membranes after 120 mins by scintillation counting method. On the technique in general: In a radioligand displacement assay an active substance lowers the binding of a labelled ligand.

In assay [2] the target is T1, Muscarinic acetylcholine receptor M4 (Homo sapiens, UniProt P08173).
T1 sequence (P08173 whole entry): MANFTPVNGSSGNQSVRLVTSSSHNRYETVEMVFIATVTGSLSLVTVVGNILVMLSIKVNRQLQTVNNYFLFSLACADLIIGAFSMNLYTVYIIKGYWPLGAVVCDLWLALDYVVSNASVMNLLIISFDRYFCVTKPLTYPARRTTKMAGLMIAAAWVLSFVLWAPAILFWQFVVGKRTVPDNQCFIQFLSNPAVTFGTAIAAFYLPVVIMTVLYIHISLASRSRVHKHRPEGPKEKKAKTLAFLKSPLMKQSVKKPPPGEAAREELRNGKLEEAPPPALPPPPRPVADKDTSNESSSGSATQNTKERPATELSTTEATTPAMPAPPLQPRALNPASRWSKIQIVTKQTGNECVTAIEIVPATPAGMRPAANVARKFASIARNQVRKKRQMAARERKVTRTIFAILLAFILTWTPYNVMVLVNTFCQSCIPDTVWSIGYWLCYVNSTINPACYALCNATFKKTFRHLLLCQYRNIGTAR
Briefly: Displacement of [3H]NMS from recombinant human muscarinic M4 receptor expressed in CHOK1 cell membranes after 120 mins by scintillation counting method.

Assay [3] concerns the target T2, Muscarinic acetylcholine receptor M5 (Homo sapiens, UniProt P08912).
T2 sequence (P08912 whole entry): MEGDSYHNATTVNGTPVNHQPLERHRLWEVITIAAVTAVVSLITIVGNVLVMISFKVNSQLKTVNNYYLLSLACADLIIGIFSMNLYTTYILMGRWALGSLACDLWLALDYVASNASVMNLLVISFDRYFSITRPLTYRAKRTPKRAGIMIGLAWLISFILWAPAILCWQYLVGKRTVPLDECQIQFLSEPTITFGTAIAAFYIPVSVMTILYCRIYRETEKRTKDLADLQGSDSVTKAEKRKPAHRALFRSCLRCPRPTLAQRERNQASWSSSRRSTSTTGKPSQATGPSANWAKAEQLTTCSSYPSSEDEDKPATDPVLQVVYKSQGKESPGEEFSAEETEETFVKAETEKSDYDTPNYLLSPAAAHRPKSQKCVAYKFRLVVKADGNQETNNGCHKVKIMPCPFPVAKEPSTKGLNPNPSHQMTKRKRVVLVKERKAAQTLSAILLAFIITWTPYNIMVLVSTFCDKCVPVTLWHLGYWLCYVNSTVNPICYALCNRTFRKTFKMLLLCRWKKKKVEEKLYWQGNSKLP
The assay can be described thus: Displacement of [3H]NMS from recombinant human muscarinic M5 receptor expressed in CHOK1 cell membranes after 120 mins by scintillation counting method.

Assay [4] deals with T3, Muscarinic acetylcholine receptor M1 (Homo sapiens, UniProt P11229).
T3 sequence (P11229 whole entry): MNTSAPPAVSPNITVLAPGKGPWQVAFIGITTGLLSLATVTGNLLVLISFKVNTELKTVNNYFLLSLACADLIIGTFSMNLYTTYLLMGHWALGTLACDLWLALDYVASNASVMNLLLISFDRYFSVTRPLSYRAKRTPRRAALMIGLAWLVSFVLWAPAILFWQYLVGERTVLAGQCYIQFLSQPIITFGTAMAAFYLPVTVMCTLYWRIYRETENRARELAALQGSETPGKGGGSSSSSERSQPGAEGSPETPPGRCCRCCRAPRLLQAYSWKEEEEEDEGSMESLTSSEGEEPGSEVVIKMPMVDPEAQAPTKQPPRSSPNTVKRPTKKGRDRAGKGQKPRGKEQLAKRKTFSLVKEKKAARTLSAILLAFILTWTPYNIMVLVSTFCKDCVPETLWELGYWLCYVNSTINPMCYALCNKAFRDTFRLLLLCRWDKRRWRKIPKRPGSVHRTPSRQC
Briefly: Displacement of [3H]NMS from recombinant human muscarinic M1 receptor expressed in CHOK1 cell membranes after 120 mins by scintillation counting method.

Assay [5] has as its target T4, Muscarinic acetylcholine receptor M2 (Homo sapiens, UniProt P08172).
T4 sequence (P08172 whole entry): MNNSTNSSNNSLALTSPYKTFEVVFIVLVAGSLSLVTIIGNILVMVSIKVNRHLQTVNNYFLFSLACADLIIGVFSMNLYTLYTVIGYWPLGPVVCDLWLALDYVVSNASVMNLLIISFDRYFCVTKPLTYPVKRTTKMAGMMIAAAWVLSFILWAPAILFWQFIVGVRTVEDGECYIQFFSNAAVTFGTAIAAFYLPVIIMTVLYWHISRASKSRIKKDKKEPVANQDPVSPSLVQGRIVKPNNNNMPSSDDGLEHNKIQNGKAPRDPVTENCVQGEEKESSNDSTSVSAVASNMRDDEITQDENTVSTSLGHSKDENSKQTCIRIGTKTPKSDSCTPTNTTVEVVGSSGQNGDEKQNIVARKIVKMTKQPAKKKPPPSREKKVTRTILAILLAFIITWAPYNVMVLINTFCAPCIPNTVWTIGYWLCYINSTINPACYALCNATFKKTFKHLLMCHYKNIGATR
The assay can be described thus: Displacement of [3H]NMS from recombinant human muscarinic M2 receptor expressed in CHOK1 cell membranes after 120 mins by scintillation counting method.

Sequence of Muscarinic acetylcholine receptor M3 (P20309 whole entry): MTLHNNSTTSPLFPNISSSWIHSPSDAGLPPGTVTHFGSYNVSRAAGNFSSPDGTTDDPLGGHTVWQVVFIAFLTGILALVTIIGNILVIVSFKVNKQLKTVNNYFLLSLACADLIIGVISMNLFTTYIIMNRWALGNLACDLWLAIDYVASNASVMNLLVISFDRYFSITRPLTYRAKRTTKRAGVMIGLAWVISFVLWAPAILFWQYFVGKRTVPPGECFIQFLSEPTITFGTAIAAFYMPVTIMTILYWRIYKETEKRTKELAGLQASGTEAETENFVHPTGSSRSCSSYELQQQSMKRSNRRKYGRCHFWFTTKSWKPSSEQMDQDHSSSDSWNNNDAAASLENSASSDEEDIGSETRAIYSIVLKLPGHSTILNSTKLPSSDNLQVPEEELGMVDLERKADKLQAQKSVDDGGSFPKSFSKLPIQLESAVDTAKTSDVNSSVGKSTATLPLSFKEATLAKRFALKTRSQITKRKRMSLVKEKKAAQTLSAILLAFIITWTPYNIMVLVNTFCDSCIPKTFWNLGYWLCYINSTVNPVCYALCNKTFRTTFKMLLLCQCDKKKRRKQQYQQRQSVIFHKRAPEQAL

`c1ccc(C2(c3ccccc3)COC[C@@H](CO[C@@H]3CN4CCC3CC4)O2)cc1`: the inhibition constant (Ki) in assay [1] is 105 nM; in assay [2], 100 nM; in assay [3], 112 nM; in assay [4], 55 nM; in assay [5], 61.7 nM.

In the case of `c1ccc(C2(c3ccccc3)COC[C@H](CO[C@@H]3CN4CCC3CC4)O2)cc1`, the inhibitory constant (Ki) in assay [1] was 20 nM; in assay [2] it was 11.5 nM; in assay [3], 19.1 nM; in assay [4], 4.57 nM; in assay [5], 33.1 nM.

For the compound `c1ccc(C2(c3ccccc3)COC[C@H](CO[C@H]3CN4CCC3CC4)O2)cc1`, the Ki in assay [1] is 43.7 nM; in assay [2], 22.9 nM; in assay [3] it was 45.7 nM; in assay [4], 8.91 nM; in assay [5] it was 57.5 nM.

As to `c1ccc(C2(c3ccccc3)COC[C@@H](CO[C@H]3CN4CCC3CC4)O2)cc1`, the inhibition constant (Ki) in assay [1] is 617 nM; in assay [2], 437 nM; in assay [3], 631 nM; in assay [4], 162 nM; in assay [5] it was 355 nM.

Consider `O=C(O[C@H]1CN2CCC1CC2)N1CCc2ccccc2[C@@H]1c1ccccc1` [SOLIFENACIN], for which the inhibition constant (Ki) in assay [1] was 13.2 nM; in assay [2], 129 nM; in assay [3], 43.7 nM; in assay [4] it was 51.3 nM; in assay [5], 120 nM.

In general, Ki refers to the dissociation constant of the complex between target and ligand, obtained from inhibition or displacement.
